Measured values from ChEMBL document CHEMBL1201862, “PubChem BioAssay data set” (2004).
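Where inhibition never reached the appropriate level, the endpoint shown equals the highest concentration tested. Otherwise, values were interpolated linearly from a five-concentration, 48-hour dose response in 96-well plates. GI50: concentration for 50% inhibition of growth.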 Calls of active or inactive are those of the source. No stated cut-off is given here; in the data, active = GI50 up to about 1.1 µM and inactive = higher.

Assays:
Experiment in all cases: inhibition of tumour cell growth, NCI panel, 48 h
MDA-MB-435 = system: MDA-MB-435
KM12 = system: KM12
RPMI-8226 = system: RPMI-8226
CAKI-1 = system: CAKI-1
K562 = system: K562
SNB-19 = system: SNB-19
ACHN = system: ACHN
HCC 2998 = system: HCC 2998
SK-MEL-5 = system: SK-MEL-5
M14 = system: M14
HL-60 = system: HL-60
OVCAR-8 = system: OVCAR-8
BT-549 = system: BT-549
HCT-116 = system: HCT-116
LOX IMVI = system: LOX IMVI
HT-29 = system: HT-29
SR = system: SR
NCI-H522 = system: NCI-H522
HOP-92 = system: HOP-92
MDA-MB-231 = system: MDA-MB-231

Measured: GI50

Cn1c2ccccc2n2c(=O)c3cc([N+](=O)[O-])ccc3c(C#N)c12
inactive: MDA-MB-435 > 100 µM | KM12 > 100 µM | RPMI-8226 > 100 µM | CAKI-1 > 10 µM | K562 > 100 µM | SNB-19 > 100 µM | ACHN 75.3 µM | HCC 2998 > 100 µM | SK-MEL-5 > 100 µM | M14 > 100 µM | HL-60 > 100 µM | OVCAR-8 > 100 µM | BT-549 > 100 µM | HCT-116 > 100 µM | LOX IMVI > 100 µM | HT-29 > 100 µM | SR > 100 µM | NCI-H522 > 100 µM

C1CN(c2nc3c(nnc4nc(N5CCOCC5)sc43)s2)CCO1
inactive: MDA-MB-435 > 100 µM | KM12 > 100 µM | RPMI-8226 > 100 µM | CAKI-1 > 100 µM | K562 > 100 µM | SNB-19 89.1 µM | HOP-92 29.4 µM | ACHN > 100 µM | SK-MEL-5 > 100 µM | M14 > 100 µM | HL-60 > 100 µM | OVCAR-8 > 100 µM | BT-549 > 100 µM | HCT-116 > 100 µM | LOX IMVI > 100 µM | MDA-MB-231 > 100 µM | HT-29 > 100 µM | NCI-H522 45.3 µM

CC(=O)C(=C(I)I)c1ccccc1
inactive: MDA-MB-435 14.6 µM | KM12 20.9 µM | CAKI-1 1.84 µM | K562 15 µM | SNB-19 18.5 µM | HOP-92 37.2 µM | ACHN 18.3 µM | HCC 2998 24.5 µM | SK-MEL-5 15.1 µM | M14 14.5 µM | HL-60 24.7 µM | OVCAR-8 18.3 µM | HCT-116 15.4 µM | LOX IMVI 18.1 µM | MDA-MB-231 22.3 µM | HT-29 17.9 µM | SR 13.1 µM | NCI-H522 12.7 µM

O=P(O)(Cc1ccccc1)c1ccccc1-c1ccccc1
inactive: KM12 77.3 µM | CAKI-1 > 100 µM | K562 > 100 µM | SNB-19 > 100 µM | ACHN > 100 µM | HCC 2998 > 100 µM | SK-MEL-5 > 100 µM | M14 > 100 µM | HL-60 > 100 µM | OVCAR-8 > 100 µM | BT-549 > 100 µM | HCT-116 > 100 µM | LOX IMVI > 100 µM | MDA-MB-231 > 100 µM | HT-29 > 100 µM | SR > 100 µM | NCI-H522 > 100 µM

Cc1nc2nnc(CCCCCCCCc3nnc4nc(C)[nH]n34)n2[nH]1
inactive: MDA-MB-435 > 100 µM | KM12 66.1 µM | CAKI-1 > 100 µM | K562 > 100 µM | SNB-19 > 100 µM | HOP-92 > 100 µM | ACHN > 100 µM | HCC 2998 > 100 µM | SK-MEL-5 > 100 µM | M14 > 100 µM | HL-60 > 100 µM | OVCAR-8 > 100 µM | BT-549 > 100 µM | HCT-116 > 100 µM | LOX IMVI 47.4 µM | MDA-MB-231 > 100 µM | HT-29 > 100 µM | NCI-H522 60.5 µM

[N-]=[N+]=NC[C@H]1OCO[C@H](CN=[N+]=[N-])[C@H]2OCCOCCOc3ccccc3OCCOCCO[C@@H]21
inactive: MDA-MB-435 > 100 µM | KM12 > 100 µM | RPMI-8226 > 100 µM | CAKI-1 > 100 µM | K562 > 100 µM | SNB-19 > 100 µM | HCC 2998 > 100 µM | SK-MEL-5 > 100 µM | M14 > 100 µM | HL-60 > 100 µM | OVCAR-8 > 100 µM | BT-549 > 100 µM | HCT-116 > 100 µM | LOX IMVI > 100 µM | MDA-MB-231 > 100 µM | HT-29 > 100 µM | NCI-H522 > 100 µM

Oc1ccccc1/C=N/c1ccc(-c2nc3ccccc3s2)cc1
inactive: MDA-MB-435 26.6 µM | KM12 22 µM | RPMI-8226 23.2 µM | CAKI-1 28.2 µM | K562 24.6 µM | SNB-19 48.4 µM | HOP-92 17.7 µM | ACHN 22.4 µM | HCC 2998 20.3 µM | SK-MEL-5 15.1 µM | M14 37.1 µM | HL-60 11.8 µM | OVCAR-8 28.6 µM | BT-549 31.8 µM | HCT-116 29.6 µM | LOX IMVI 26.4 µM | HT-29 30.8 µM | SR 33.7 µM | NCI-H522 17.3 µM

NNC(=O)c1c(SCc2ccccc2)nc2c3ccccc3ccn12
inactive: MDA-MB-435 17.1 µM | KM12 22.6 µM | CAKI-1 15 µM | K562 14.7 µM | SNB-19 36.6 µM | HOP-92 17 µM | ACHN 27.2 µM | HCC 2998 46.8 µM | SK-MEL-5 6.32 µM | M14 14.5 µM | HL-60 9.08 µM | OVCAR-8 30.5 µM | BT-549 21.4 µM | MDA-MB-231 29.4 µM | HT-29 16.5 µM | NCI-H522 15.5 µM

CCC1CN(C(=O)c2ccccc2)C(Cc2c[nH]c3ccccc23)C(=O)C1CC(=O)OC (stereo not given)
inactive: MDA-MB-435 > 100 µM | KM12 59.2 µM | CAKI-1 54.7 µM | K562 47.8 µM | HOP-92 > 100 µM | ACHN > 100 µM | SK-MEL-5 72.8 µM | M14 58.6 µM | HL-60 31.6 µM | OVCAR-8 79.6 µM | BT-549 > 100 µM | LOX IMVI 90.6 µM | HT-29 28 µM | SR 36.6 µM | NCI-H522 50.9 µM

CC(NC(=O)C(N)CC(=O)O)NC(=O)C1CCC1 (stereo not given)
inactive: MDA-MB-435 > 100 µM | KM12 > 100 µM | RPMI-8226 > 100 µM | CAKI-1 > 100 µM | K562 > 100 µM | SNB-19 > 100 µM | ACHN > 100 µM | SK-MEL-5 > 100 µM | M14 > 100 µM | OVCAR-8 > 100 µM | BT-549 > 100 µM | HCT-116 > 100 µM | LOX IMVI > 100 µM | MDA-MB-231 > 100 µM | HT-29 > 100 µM | NCI-H522 > 100 µM

Oc1ccc2ccccc2c1Cc1c(O)ccc2ccccc12
inactive: MDA-MB-435 11 µM | KM12 18.2 µM | RPMI-8226 16.4 µM | CAKI-1 17.1 µM | K562 8.83 µM | SNB-19 18.4 µM | ACHN 17.3 µM | HCC 2998 17.4 µM | SK-MEL-5 16.1 µM | M14 16.7 µM | HL-60 17.8 µM | OVCAR-8 15.6 µM | BT-549 16.9 µM | HCT-116 16.1 µM | LOX IMVI 15.2 µM | MDA-MB-231 18.2 µM | HT-29 22.1 µM | NCI-H522 10.7 µM
